From patent US9474755B2, “GLP-1 receptor modulators” (Receptos, Inc., priority 2014, dated 2016)

biological target: T1, GLP-1R (Homo sapiens, UniProt P43220); assay: EC20 GLP-1(9-36) PAM cAMP Assay: dose response of compound in the presence of fixed concentration of GLP-1(9-36); type: cell-based; details: GLP-1R CRE-bla CHO-K1 cells, in presence of fixed concentration of GLP-1(9-36), 30 min at 37° C.
T1 construct: host or cells: CRE-bla CHO-K1
Experimental: EC20 GLP-1(9-36) PAM cAMP Assay: Dose Response of Compound in the Presence of Fixed Concentration of GLP-1 (9-36).
GLP-1R CRE-bla CHO-K1 cells cultured in growth medium (DMEM-High glucose, 10% dialyzed FBS, 0.1 mM NEAA, 25 mM Hepes, 100 U/mL penicillin/100 μg/mL streptomycin, 5 μg/mL Blasticidin, 600 μg/mL Hygromycin) were trypsinized and plated in suspension into 384 well white flat bottom plates at 5000 cells/well in 12 μL assay buffer (Hanks Balanced Salt solution, 10 mM Hepes, 0.1% BSA, 10 pH 7.4). A 5× compound dose response curve (12-point) was generated in assay buffer containing 1.5 mM IBMX, 4% DMSO. GLP-1(9-36) was diluted to 4.2 μM in assay buffer containing 1.5 mM IBMX and 4% DMSO. The 5× compound dose response was added (3 μL), followed by 0.5 μL of GLP-1(9-36) and cells were incubated for 30 min at 37° C. Direct detection of cAMP was carried out using DiscoveRx HitHunter cAMP kit according to manufacturer's instructions and luminescence was read using a SpectraMax M5 plate reader. Luminescence was converted to total cAMP using a cAMP standard curve and data was analyzed by non-linear regression to determine the EC50 and Emax.

T1 sequence (P43220 24-463): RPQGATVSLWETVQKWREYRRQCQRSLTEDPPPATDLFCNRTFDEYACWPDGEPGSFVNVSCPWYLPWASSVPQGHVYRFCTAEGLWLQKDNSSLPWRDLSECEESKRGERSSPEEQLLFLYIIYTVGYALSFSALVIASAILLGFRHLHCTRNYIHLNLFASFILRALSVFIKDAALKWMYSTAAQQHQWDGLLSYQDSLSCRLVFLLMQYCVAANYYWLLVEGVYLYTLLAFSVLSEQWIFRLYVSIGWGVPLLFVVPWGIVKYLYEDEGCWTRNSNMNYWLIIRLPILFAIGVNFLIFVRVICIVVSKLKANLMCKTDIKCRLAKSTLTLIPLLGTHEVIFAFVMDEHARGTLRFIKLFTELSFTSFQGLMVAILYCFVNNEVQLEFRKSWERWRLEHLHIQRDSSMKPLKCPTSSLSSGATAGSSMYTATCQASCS
T1 sequence (P01275 100-127 partner limits assumed): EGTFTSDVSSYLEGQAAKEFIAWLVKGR

Row | EC50 [nM] | Structure (SMILES)
1 | 5000 to 10000 | CCCC1CCC(C2CCC(c3cnc(-c4ccc(C[C@H](NC(=O)c5cnn(C(C)(C)C)c5)C(=O)N5CC(C(=O)O)C5)cc4)nc3)CC2)CC1 (stereo partly drawn) [Compound 18]
2 | < 500 | CCCC1CCC(C2CC=C(c3cnc(-c4ccc(C[C@H](NC(=O)c5ccc(C(C)C)s5)C(=O)N5CC(C(=O)O)C5)cc4)nc3)CC2)CC1 (stereo partly drawn) [Compound 17]
3 | < 500 | CCCC1CCC(C2CC=C(c3cnc(-c4ccc(C[C@H](NC(=O)c5ccc(C(C)(C)C)s5)C(=O)N5CC[C@H](C(=O)O)C5)cc4)nc3)CC2)CC1 (stereo partly drawn) [Compound 7, (3S)-1-((2S)-2-(5-(tert-butyl)thiophene-2-carboxamido)-3-(4-(5-(4′-propyl-[1,1′-bi(cyclohexan)]-3-en-4-yl)pyrimidin-2-yl)phenyl)propanoyl)pyrrolidine-3-carboxylic acid]
4 | < 500 | CCCC1CCC(C2CC=C(c3cnc(-c4ccc(C[C@H](NC(=O)c5ccc(C6CC6)s5)C(=O)N5CC(C(=O)O)C5)cc4)nc3)CC2)CC1 (stereo partly drawn) [Compound 34]
5 | 500 to 2500 | CCCCCC1CC=C(c2cnc(-c3ccc(C[C@H](NC(=O)c4ccc(C(C)(C)C)s4)C(=O)N[C@H](C)C(=O)O)cc3)nc2)CC1 (stereo partly drawn) [Compound 53]
6 | 5000 to 10000 | CCCC1CCC(C2CCC(c3cnc(-c4ccc(C[C@H](NC(=O)c5ccc(CC)cc5)C(=O)N5CC(C(=O)O)C5)cc4)nc3)CC2)CC1 (stereo partly drawn) [Compound 20]
7 | < 500 | CCCC1CCC(C2CC=C(c3cnc(-c4ccc(C[C@H](NC(=O)c5ccc(OC(C)C)cc5)C(=O)N5CC(C(=O)O)C5)cc4)nc3)CC2)CC1 (stereo partly drawn) [Compound 27]
8 | < 500 | C[C@@H](NC(=O)[C@H](Cc1ccc(-c2ncc(C3=CCC(C(C)(C)C)CC3)cn2)cc1)NC(=O)c1ccc(C(C)(C)C)s1)C(=O)O (stereo partly drawn) [Compound 56]
9 | 500 to 2500 | CCCC1CCC(C2CC=C(c3cnc(-c4ccc(C[C@H](NC(=O)c5ccc(C(C)(C)C(F)(F)F)cc5)C(=O)N5CC(C(=O)O)C5)cc4)nc3)CC2)CC1 (stereo partly drawn) [Compound 35]
10 | < 500 | CC[C@H]1CC[C@H](C2CC=C(c3cnc(-c4ccc(C[C@H](NC(=O)c5ccc(C(C)(C)C)s5)C(=O)NS(C)(=O)=O)cc4)nc3)CC2)CC1 (mixture of isomers) [Compound 109, 5-(tert-butyl)-N—((S)-3-(4-(5-((1RS,1′r,4′RS)-4′-ethyl-[1,1′-bi(cyclohexan)]-3-en-4-yl)pyrimidin-2-yl)phenyl)-1-(methylsulfonamido)-1-oxopropan-2-yl)thiophene-2-carboxamide]
11 | 2500 to 5000 | CCCC1CCN(C2CC=C(c3cnc(-c4ccc(C[C@H](NC(=O)c5ccc(C(C)(C)C)s5)C(=O)N5CC(C(=O)O)C5)cc4)nc3)CC2)CC1 (stereo partly drawn) [Compound 46]
12 | 500 to 2500 | CCCC1CCC(C2CC=C(c3cnc(-c4ccc(C[C@H](NC(=O)c5ccc(C(C)(C)C)s5)C(=O)N5C6CCC5C(C(=O)O)C6)cc4)nc3)CC2)CC1 (stereo partly drawn) [Compound 80]
13 | 500 to 2500 | C[C@@H](NC(=O)[C@H](Cc1ccc(-c2ncc(C3=CCCC3)cn2)cc1)NC(=O)c1ccc(C(C)(C)C)s1)C(=O)O [Compound 63]
14 | 500 to 2500 | CCCC1CCC(C2CC=C(c3cnc(-c4ccc(C[C@H](NC(=O)c5cc6cc(OC)ccc6[nH]5)C(=O)N5CC(C(=O)O)C5)cc4)nc3)CC2)CC1 (stereo partly drawn) [Compound 33]
15 | 2500 to 5000 | C[C@@H](NC(=O)[C@H](Cc1ccc(-c2ncc(C3=CC4CC[C@]3(C)C4(C)C)cn2)cc1)NC(=O)c1ccc(C(C)(C)C)s1)C(=O)O [Compound 58]
16 | < 500 | CCCCCC1CCC(C2CC=C(c3cnc(-c4ccc(C[C@H](NC(=O)c5ccc(C(C)(C)C)s5)C(=O)N5CC(C(=O)O)C5)cc4)nc3)CC2)CC1 (mixture of isomers) [Compound 4, 1-((2S)-2-(5-(tert-butyl)thiophene-2-carboxamido)-3-(4-(5-(4′-pentyl-[1,1′-bi(cyclohexan)]-3-en-4-yl)pyrimidin-2-yl)phenyl)propanoyl)azetidine-3-carboxylic acid]
17 | < 500 | CCC[C@H]1CC[C@H](C2CC=C(c3cnc(-c4ccc(C[C@H](NC(=O)c5ccc(C(C)(C)C)s5)C(=O)N5CC(C(=O)O)C5)cc4)nc3)C(C)C2)CC1 (stereo partly drawn) [Compound 87]
18 | < 500 | CC1(C)CCC(C2CC=C(c3cnc(-c4ccc(C[C@H](NC(=O)c5ccc(C(C)(C)C)s5)C(=O)N5CC(C(=O)O)C5)cc4)nc3)CC2)CC1 (stereo partly drawn) [Compound 90]

Row | EC50 [nM] | Structure (SMILES)
19 | 2500 to 5000 | CCCC1CCC(C2CCC(c3cnc(-c4ccc(C[C@H](NC(=O)c5ccc(C(C)C)cc5)C(=O)N5CC(C(=O)O)C5)cc4)nc3)CC2)CC1 (stereo partly drawn) [Compound 12]
20 | 500 to 2500 | CCCC1CCC(C2CC=C(c3cnc(-c4ccc(C[C@H](NC(=O)c5ccc(C(C)(C)C)s5)C(=O)N[C@H](Cc5cnc[nH]5)C(=O)O)cc4)nc3)CC2)CC1 (stereo partly drawn) [Compound 78]
21 | 500 to 2500 | CC(C)C1CC=C(c2cnc(-c3ccc(C[C@H](NC(=O)c4ccc(C(C)(C)C)s4)C(=O)N4CC(C(=O)O)C4)cc3)nc2)CC1 (stereo partly drawn) [Compound 40]
22 | < 500 | CC(C)(C)c1ccc(C(=O)N[C@@H](Cc2ccc(-c3ncc(C4=CCC(c5ccccc5)CC4)cn3)cc2)C(=O)N2CC(C(=O)O)C2)s1 (stereo partly drawn) [Compound 11]
23 | 500 to 2500 | CC[C@H]1CC[C@H](C2CC=C(c3cnc(-c4ccc(C[C@H](NC(=O)c5ccccc5)C(=O)N5CC(C(=O)O)C5)cc4)nc3)CC2)CC1 (stereo partly drawn) [Compound 99]
24 | < 500 | COC(=O)C1CC=C(c2cnc(-c3ccc(C[C@H](NC(=O)c4ccc(C(C)(C)C)s4)C(=O)N[C@H](C)C(=O)O)cc3)nc2)CC1 (stereo partly drawn) [Compound 62]
25 | < 500 | CC(C)(C)c1ccc(C(=O)N[C@@H](Cc2ccc(-c3ncc(C4=CCC([C@H]5CC[C@H](C)CC5)CC4)cn3)cc2)C(=O)N2CCC[C@H]2C(=O)O)s1 (stereo partly drawn) [Compound 111]
26 | < 500 | C[C@@H](NC(=O)[C@H](Cc1ccc(-c2ncc(C3=CCC([C@H]4CC[C@H](C)CC4)CC3)cn2)cc1)NC(=O)c1ccc(C(C)(C)C)s1)C(=O)O (stereo partly drawn) [Compound 112]
27 | < 500 | CC[C@H]1CC[C@H](C2CC=C(c3cnc(-c4ccc(C[C@H](NC(=O)c5ccc(C6CC6)cc5)C(=O)N5CC(C(=O)O)C5)cc4)nc3)CC2)CC1 (stereo partly drawn) [Compound 104]
28 | < 500 | CCCC1CCC(C2CC=C(c3cnc(-c4ccc(C[C@H](NC(=O)c5ccc(CC)s5)C(=O)N5CC(C(=O)O)C5)cc4)nc3)CC2)CC1 (stereo partly drawn) [Compound 31, 1-((S)-2-(5-ethylthiophene-2-carboxamido)-3-(4-(5-((1RS,1′s,4′RS)-4′-propyl-[1,1′-bi(cyclohexan)]-3-en-4-yl)pyrimidin-2-yl)phenyl)propanoyl)azetidine-3-carboxylic acid]
29 | 500 to 2500 | CCC1CC=C(c2cnc(-c3ccc(C[C@H](NC(=O)c4ccc(C(C)(C)C)s4)C(=O)N[C@H](C)C(=O)O)cc3)nc2)CC1 (stereo partly drawn) [Compound 51]
30 | < 500 | CCC(C)(C)c1ccc(C(=O)N[C@@H](Cc2ccc(-c3ncc(C4=CCC([C@H]5CC[C@H](CC)CC5)CC4)cn3)cc2)C(=O)N2CC(C(=O)O)C2)cc1 (stereo partly drawn) [Compound 101]
31 | < 500 | CCCC1CCC(C2CC=C(c3cnc(-c4ccc(C[C@H](NC(=O)c5ccc(C6(C)CC6)cc5)C(=O)N5CC(C(=O)O)C5)cc4)nc3)CC2)CC1 (stereo partly drawn) [Compound 26]
32 | 500 to 2500 | CC[C@H]1CC[C@H](C2CC=C(c3cnc(-c4ccc(C[C@H](NC(=O)c5ccc(OC(C)(C)C)cc5)C(=O)N5CC(C(=O)O)C5)cc4)nc3)CC2)CC1 (stereo partly drawn) [Compound 95]
33 | 500 to 2500 | CCCC1CCC(C2CCC(c3cnc(-c4ccc(C[C@H](NC(=O)c5ccc(C(C)C)s5)C(=O)N5CC(C(=O)O)C5)cc4)nc3)CC2)CC1 (stereo partly drawn) [Compound 16]
34 | 500 to 2500 | CC(C)(C)c1ccc(C(=O)N[C@@H](Cc2ccc(-c3ncc(C4=CCC(C(F)(F)F)CC4)cn3)cc2)C(=O)N2CC(C(=O)O)C2)s1 (stereo partly drawn) [Compound 37]
35 | 2500 to 5000 | C[C@@H](NC(=O)[C@H](Cc1ccc(-c2ncc(C3=CCC4(CC3)OCCO4)cn2)cc1)NC(=O)c1ccc(C(C)(C)C)s1)C(=O)O [Compound 66]
36 | 500 to 2500 | C[C@@H](NC(=O)[C@H](Cc1ccc(-c2ncc(C3=Cc4ccccc4C3)cn2)cc1)NC(=O)c1ccc(C(C)(C)C)s1)C(=O)O [Compound 50]
